The values that follow come from patent US6974664B2, “Screening method for cancer therapeutics and stable antitumor drug” (The Board of Trustees of the Leland Stanford University, priority 2000, dated 2005).

Structures are written as SMILES.

Data set [1] relates to LYas cells. Put plainly: % killing of LYas cells with apoptolidin or oligomycin plus oxamate. The class given is cell-based, murine. As to conditions: 7 hours; for lowest concentration showing substantial killing in presence of oxamate: LYas cells 1×10^6 ml, with oxamate. How it is done: Similar results are shown in FIG. 8 for LYas cells, where cells planted at 1×10^6 ml were assessed for % killing after 7 hours when treated with various concentrations of apoptolidin or oligomycin in the presence of various concentrations of oxamate. When no apoptosis drugs are administered, there is no effect of oxamate up to a concentration of 15 mM. However, at concentrations where the oxamate alone has no effect, both oligomycin and apoptolidin were able to show substantial killing at concentrations as low as 0.1 mM.

Data set [2] relates to Jurkat cells. Nature of the data set: Sensitization of Jurkat cells to apoptolidin by oxamate or deoxyglucose. It is filed as cell-based. The method, then:
For example, Jurkat cells planted at 40,000 cells per well and treated with 1 μM of apoptolidin show no cell death over a time period of 20 hours. […] Treatment with these amounts of oxamate alone has no effect. (Oxamate is a known inhibitor of lactate dehydrogenase; which converts pyruvate to lactate.)
Another compound known to repress the flow of glucose through the fermentative pathway is deoxyglucose which competes with glucose for this pathway but results in a dead end. […] Deoxyglucose alone at the control concentrations has no effect.

Data set [3] can be described thus: Stability by analytical reverse phase HPLC at pH 4, 7 and 10. It is filed as physicochemical. As to conditions: for time structure retained: pH 4; for time remained intact / decomposition: pH 10. The method, then:
Stability was monitored by an analytical reverse phase HBLC using a Beckman C18 column (4.6 mm×25 cm). Stability was analyzed in this manner at pH 4, 7 and 10, both for apoptolidin and the compound of formula 1. At pH 4, apoptolidin retained its structure for 24 hours; the compound of formula 1 for at least 28 hours when observation was terminated.

Data set [4] deals with breast carcinoma cell line MCF-7. Put plainly: MTT assay, MCF-7 cells. It is filed as cell-based. Particulars: Homo sapiens, MCF7; MCF-7, 120 hours. The method, then:
(§1) Activity was measured by FACS staining for annexin V and by MTT assay.
The breast carcinoma cell line MCF-7 was tested in 96-well plates in triplicate. Dilutions of apoptolidin or the compound of formula 1 were added to the wells for 120 hours. MTT was then added to the wells at a final concentration of 0.5 mg/ml. The supernatant was removed and the crystals dissolved in 40 mM HCl and isopropanol. The plates were scanned on a microplate reader at 595 nm. The IC50 of the compound of formula 1 was 10 μM; the IC50 of apoptolidin was 90 nM.
A general note: Tetrazolium assays rely on reduction of a dye to a coloured formazan, in cell work by metabolically active cells.

In data set [5] the target is T1, yeast mitochondrial FOF1-ATP synthase (Saccharomyces cerevisiae, UniProt P00830+P07251+P38077+P61829).
T1 construct: 20 μg of yeast mitochondrial protein (as measured by the Lowry method) was added to reaction buffer; endogenous in cells; host or cells: Crude mitochondria from Saccharomyces cerevisiae strain DBY7286 grown on lactate
Put plainly: Yeast mitochondrial ATPase activity assay. It is filed as biochemical. As to conditions: for consumption of NADH: 80 μM oligomycin or 87 μM apoptolidin, 20 μg yeast mitochondrial protein; for Ki: yeast mitochondria, pH 8, read-out: calculated Ki, ATPase activity. The method, then:
The assay is that described in Example 4 hereinbelow where the combination of pyruvate kinase and LDH effect conversion of phosphoenol pyruvate to lactate in the presence of ATP and NADH. With increasing concentrations of either drug, the specific activity of the enzyme rapidly declines. The calculated Ki values for oligomycin and apoptolidin are 1 μM and 5 μM respectively. Although the observed Ki for apoptolidin is five-fold higher than that for oligomycin, this may be an underestimate of the potency of apoptolidin. […] Mitochondrial ATPase activity assays are typically performed at pH 8. Thus, the true Ki for apoptolidin may be lower than that observed herein and accounts for the observation the IC50 values for apoptolidin against both LYas as well as MCF7 cells are substantially lower than the measured Ki against mitochondrial ATPase. This difference might be explained by a preference for mammalian ATPase over yeast ATPase, or by the possibility that apoptosis via this pathway is a dominant phenotype.
Crude yeast mitochondria were isolated from a lactate grown Saccharomyces cerevisiae strain DBY7286 (mata, ura-/-) according to published procedures. Briefly, 2 L shake flasks of yeast were grown up on semisynthetic lactate medium at 30° C. with vigorous shaking to an OD600 of 3. Cells were collected at 4000 g and the wet weight of the pellet was determined. Cells were converted to spheroplasts by a 30 minute incubation at 30° C. with 2.5 mg Zymolyase 20T (ICN Biochemicals) per gram of packed cells in a volume of 2 ml per gram of packed cells in Buffer A (1.2 M sorbitol, 20 mM potassium phosphate, pH 7.4). The Zymolyase 20T was washed out twice by centrifugation at 4000 g and resuspension in Buffer A. The spheroplasts were then resuspended in Buffer B (0.6 M sorbitol, 20 mM K^+ MES, pH6.0) with 0.5 mM PMSF and homogenized in a 40 ml glass Dounce homogenizer using 15 strokes with a tight-fitting pestle. The unbroken spheroplasts were collected by centrifugation at 1500 g and rehomogenized with 15 strokes in Buffer B plus PMSF. […] The protein concentration was determined by the Lowry assay and the dark brown mitochondria were resuspended in Buffer C (0.6 M sorbitol, 20 mM HEPES, pH 7.4). Mitochondria were prepared fresh and ATPase activity was measured within 6 hours.
Mitochondrial ATPase activity was measured by standard methods. Briefly, 20 μg of yeast mitochondrial protein (as measured by the Lowry method) was added to reaction buffer containing 50 mM Tris (pH 8.0), 1 mM ATP, 0.3 mM NADH, 3.3 mM MgCl2, 2 μg/ml antimycin A, 1 mM phosphoenol pyruvate, 5 U/ml lactate dehydrogenase, and 2.5 U/ml pyruvate kinase at 28° C. […]

Data set [6] has as its system mouse B cell lymphoma cell line LYAS. Nature of the data set: FACS staining for annexin V, LYAS cells. It is filed as cell-based. As to conditions: 6 hours incubation, read-out: IC50, percentage of annexin V+ cells. The method, then: as §1
The mouse B cell lymphoma cell line LYAS was incubated with apoptolidin in a compound of formula 1 for 6 hours. The treating compounds were removed and the cells were stained with annexin V-CY5PE for 15 minutes and washed 3 times. Cells were analyzed on the FACSAN and the percentage of annexin V+ cells was quantified. The IC50 of the compound of formula 1 was 10 μM; the IC50 of apoptolidin was 100 nM.

In data set [7] the test system is PARP. Nature of the data set: PARP cleavage in the presence of apoptolidin. The class given is cell-based. As to conditions: 1 μM apoptolidin, within 6 hours. The source says: Among those cells which have high ATP requirements, aerobic cells are sensitive, while anaerobic cells are resistant.
The test system of data set [8] is mouse B cell lymphoma cell line LYAS. Particulars: FACS staining for Annexin V; cited from earlier work.
The subject of data set [9] is breast carcinoma cell line MCF-7. As to conditions: MCF-7, MTT assay; cited from earlier work.

On to `NC(=O)C(=O)O` [oxamate], for which, in [1] (no apoptosis drug, up to 15 mM oxamate), the “effect on % killing, oxamate alone” value was “no effect”. Also, the “effect on cell death, enhancer alone” value in data set [2] (oxamate alone, 5 mM and 50 mM) is reported as “no effect”.
For orientation: half-life means how long it takes for the measured level to halve. The term IC50 denotes the concentration needed to halve the response being measured. Usually Ki stands for the dissociation constant of the complex between target and ligand, obtained from inhibition or displacement. With `COC[C@@H](C[C@H]1O[C@@](O)([C@H](O)[C@@H]2C[C@H](OC)[C@@H](O)CC/C=C(C)/C=C/[C@@H](O[C@@H]3O[C@@H](C)[C@H](OC)[C@@H](O)[C@@H]3O)[C@H](C)/C=C(C)/C=C(C)/C=C(\C)C(=O)O2)[C@H](C)[C@@H](O)[C@H]1C)OC1C[C@](C)(O)[C@@H](O[C@H]2C[C@@H](OC)[C@H](O)[C@@H](C)O2)[C@H](C)O1` (stereo partly drawn) [apoptolidin], the “lowest concentration showing substantial killing in presence of oxamate” value in data set [1] amounted to 0.1 mM. For the same molecule, in data set [3] (buffer, pH 7, read-out: decomposition half-life (converted)), the half-life was ~5 h. For the same molecule, in [3], the time structure retained was found to be 24 h and the “time remained intact / decomposition” value is “decomposed almost immediately”. In addition, the cell death entry in data set [2] (1 μM apoptolidin + 5 mM oxamate) is “does not dramatically change this result”. In addition, the “time at which cell death begins” value in data set [2] (1 μM apoptolidin + 50 mM oxamate) was “four”. The cells killed in data set [2] (1 μM apoptolidin + 50 mM oxamate, by 20 hours) was determined as 95%. For the same molecule, the cell death result in data set [2] (1 μM apoptolidin alone, 40,000 cells per well, over 20 hours) is given as “no cell death”. Further, half-maximal inhibition in data set [4] (IC50) required 90 nM. Moreover, in data set [5], the “consumption of NADH” value was “dramatically reduced” and the Ki was 5000 nM. Further, the IC50 in [6] was 100 nM. Further, the PARP cleavage result in [7] was “completely cleaved”.
With `COC[C@H](O)C[C@H]1O[C@@](O)([C@H](O)[C@@H]2C[C@H](OC)[C@@H](O)CC/C=C(C)/C=C/[C@@H](O[C@@H]3OC(C)[C@H](OC)[C@@H](O)[C@@H]3O)[C@H](C)/C=C(C)/C=C(C)/C=C(\C)C(=O)O2)C(C)=C[C@H]1C` (stereo partly drawn) [compound of formula 1], the “cytotoxic activity relative to apoptolidin” value in data set [8] and in data set [9] was 1% in each case. For the same molecule, the time structure retained entry in data set [3] was “at least 28 hours”. Also, in data set [3] (pH 7), the time remained intact result is “at least 28 hours”. For the same molecule, in data set [3], the “time remained intact / decomposition” value is given as “at least 28 hours”. For the same molecule, the 50% inhibitory concentration (IC50) in [4] and in data set [6] was 10000 nM throughout.
Regarding `O=CC[C@@H](O)[C@H](O)[C@H](O)CO` [deoxyglucose, 2-deoxyglucose], in data set [2] (deoxyglucose alone at the control concentrations), the “effect on cell death, enhancer alone” value is “no effect”. Moreover, the “lowest deoxyglucose concentration at which apoptolidin effects apoptosis” value in data set [2] (with 1 μM apoptolidin) is 5 mM.
In the case of `CC[C@H]1/C=C/C=C/C[C@@H](C)[C@H](O)[C@@](C)(O)C(=O)[C@@H](C)[C@H](O)[C@@H](C)C(=O)[C@@H](C)[C@H](O)[C@@H](C)/C=C/C(=O)O[C@@H]2[C@H](C)[C@H](CC1)O[C@]1(CC[C@H](C)[C@H](C[C@@H](C)O)O1)[C@H]2C` [oligomycin], in data set [1], the “lowest concentration showing substantial killing in presence of oxamate” value was determined as 0.1 mM. Also, in [5], the “consumption of NADH” value is recorded as “dramatically reduced” and the Ki is 1000 nM.
